Experiments:
JAK3 = target: T1, JAK3 (Homo sapiens, UniProt P52333); assay: JAK3 inhibition assay (ELISA, Poly (Glu, Ala, Tyr) coated plates); type: biochemical; details: 2 mM ATP, 60 minutes at 30° C.
T1 sequence (P52333 1-1124): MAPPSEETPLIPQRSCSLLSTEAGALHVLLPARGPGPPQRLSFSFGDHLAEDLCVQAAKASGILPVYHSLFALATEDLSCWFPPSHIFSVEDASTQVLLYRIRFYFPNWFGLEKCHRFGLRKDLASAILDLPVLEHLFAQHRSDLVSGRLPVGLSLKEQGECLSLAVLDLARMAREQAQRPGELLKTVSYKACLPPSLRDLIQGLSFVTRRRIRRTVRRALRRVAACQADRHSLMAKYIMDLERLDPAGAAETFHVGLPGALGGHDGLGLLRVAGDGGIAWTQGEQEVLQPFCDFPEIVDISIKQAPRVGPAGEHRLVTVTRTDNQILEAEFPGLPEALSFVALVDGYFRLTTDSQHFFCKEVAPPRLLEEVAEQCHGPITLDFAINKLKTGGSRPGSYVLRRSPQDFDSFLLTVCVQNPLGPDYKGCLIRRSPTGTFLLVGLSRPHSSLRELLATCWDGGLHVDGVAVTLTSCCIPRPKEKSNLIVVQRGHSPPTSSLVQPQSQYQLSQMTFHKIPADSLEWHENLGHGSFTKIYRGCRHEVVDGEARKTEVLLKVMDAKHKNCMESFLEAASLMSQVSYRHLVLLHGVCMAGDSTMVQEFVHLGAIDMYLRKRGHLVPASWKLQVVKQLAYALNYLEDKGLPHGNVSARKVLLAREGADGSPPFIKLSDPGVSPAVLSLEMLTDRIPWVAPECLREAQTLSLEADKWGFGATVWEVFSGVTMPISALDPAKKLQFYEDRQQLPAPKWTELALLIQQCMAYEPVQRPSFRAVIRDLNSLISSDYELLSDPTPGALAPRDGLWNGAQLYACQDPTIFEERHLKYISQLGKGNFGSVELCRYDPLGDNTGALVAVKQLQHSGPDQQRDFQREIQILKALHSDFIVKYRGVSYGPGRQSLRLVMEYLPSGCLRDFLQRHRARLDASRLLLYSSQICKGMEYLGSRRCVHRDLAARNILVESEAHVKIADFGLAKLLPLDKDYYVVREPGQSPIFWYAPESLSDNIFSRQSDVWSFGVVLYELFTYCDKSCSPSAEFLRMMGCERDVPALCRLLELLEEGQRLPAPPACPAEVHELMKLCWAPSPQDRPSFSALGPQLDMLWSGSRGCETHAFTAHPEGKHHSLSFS
Method in brief: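 ELISA on Poly(Glu,Ala,Tyr) 6:3:1-coated plates with 2 mM ATP and 5 mM MgCl2. JAK enzyme started the reaction, run 60 min at 30° C. Phosphotyrosine was detected with HRP-conjugated 4G10 antibody and TMB, read at 450 nm, and IC50 was derived from optical densities.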

c-KIT = target: T2, c-KIT (Homo sapiens, UniProt P10721); assay: Inhibition of c-KIT, radiometric filter-binding assay; type: biochemical; details: 700 μM ATP, 0.5 mg/mL pE4Y, room temperature
T2 construct: 0.02% BSA and 25 nM c-KIT
T2 sequence (P10721 26-976): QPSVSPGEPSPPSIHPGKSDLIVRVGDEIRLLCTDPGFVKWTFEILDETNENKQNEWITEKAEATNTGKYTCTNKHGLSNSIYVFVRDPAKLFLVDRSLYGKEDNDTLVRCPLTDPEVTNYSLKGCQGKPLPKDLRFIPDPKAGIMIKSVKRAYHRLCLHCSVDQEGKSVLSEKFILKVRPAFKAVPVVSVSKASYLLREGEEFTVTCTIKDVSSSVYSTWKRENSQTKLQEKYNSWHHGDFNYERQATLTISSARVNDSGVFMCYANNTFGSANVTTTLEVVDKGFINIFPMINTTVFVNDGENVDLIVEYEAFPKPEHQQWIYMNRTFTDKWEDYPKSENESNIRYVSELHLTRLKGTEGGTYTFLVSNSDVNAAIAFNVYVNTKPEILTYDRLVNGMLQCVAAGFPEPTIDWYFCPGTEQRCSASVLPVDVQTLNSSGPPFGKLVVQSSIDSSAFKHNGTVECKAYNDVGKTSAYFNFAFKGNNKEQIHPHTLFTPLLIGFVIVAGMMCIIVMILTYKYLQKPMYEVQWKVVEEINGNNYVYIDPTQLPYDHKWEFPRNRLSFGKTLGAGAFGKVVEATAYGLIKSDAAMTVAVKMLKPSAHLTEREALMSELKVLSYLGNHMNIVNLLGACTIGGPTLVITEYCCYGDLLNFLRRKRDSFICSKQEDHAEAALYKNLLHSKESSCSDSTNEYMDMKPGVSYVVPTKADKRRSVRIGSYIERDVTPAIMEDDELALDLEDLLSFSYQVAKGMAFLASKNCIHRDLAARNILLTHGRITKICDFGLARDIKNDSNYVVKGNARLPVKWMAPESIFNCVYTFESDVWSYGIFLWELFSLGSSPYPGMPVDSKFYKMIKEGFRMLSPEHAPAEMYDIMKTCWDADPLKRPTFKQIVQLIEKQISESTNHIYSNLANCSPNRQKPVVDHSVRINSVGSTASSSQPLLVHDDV
Method in brief: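 Radiometric filter-binding: 25 nM c-KIT (enzyme in the Solution 2 mix) with poly(Glu,Tyr) 4:1 substrate at 0.5 mg/mL and [γ-^33P]ATP at 700 μM (both final), in HEPES pH 7.5/MgCl2/NaCl/DTT/BSA with 2.5% DMSO. Incubated 20 min at room temperature, stopped with TCA, and ^33P incorporation counted on filters. 12-point titration, final compound typically 0.01-5 μM; IC50 or Ki from curve fit.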

Row | Ki (JAK3) [nM] | Ki (c-KIT) [nM] | SMILES
1 | < 200 | < 200 | Fc1cccc(-c2cnoc2-c2c[nH]c3ncc(C4=CCC(N5CCOCC5)CC4)cc23)c1F (stereo not drawn) [Compound 139, 3-[4-(2,3-Difluoro-phenyl)-isoxazol-5-yl]-5-(4-morpholin-4-yl-cyclohex-1-enyl)-1H-pyrrolo[2,3-b]pyridine]
2 | < 200 | < 200 | CS(=O)(=O)NC1CC=C(c2cnc3[nH]cc(-c4oncc4-c4cccc(F)c4F)c3c2)CC1 (stereo not drawn) [Compound 140, N-(4-{3-[4-(2,3-Difluoro-phenyl)-isoxazol-5-yl]-1H-pyrrolo[2,3-b]pyridin-5-yl}-cyclohex-3-enyl)-methanesulfonamide]
3 | 1000 to 12500 | 200 to 1000 | Cn1ccc2c(-c3oncc3-c3cccc(F)c3F)c[nH]c2c1=O [Compound 144, 3-[4-(2,3-Difluoro-phenyl)-isoxazol-5-yl]-6-methyl-1,6-dihydro-pyrrolo[2,3-c]pyridin-7-one]

Source: US7446199B2, “Compositions useful as inhibitors of protein kinases” (Vertex Pharmaceuticals Incorporated, priority 2003, dated 2008)
